Measurements published in patent US12319676B2, “Substituted amide compounds useful as farnesoid X receptor modulators” (BRISTOL-MYERS SQUIBB COMPANY, priority 2019, dated 2025).
pEC50: −log10 of the molar value.

Target: T1, human FXR (Homo sapiens, UniProt Q96RI1)
T1 construct: expressed in transfected cells; host or cells: HEK293 cells stably carrying a 5xGal4 response element-luciferase reporter, transiently transfected with pcDNA3.1-Gal4-FXR
T1 sequence (Q96RI1 262-486 limits assumed): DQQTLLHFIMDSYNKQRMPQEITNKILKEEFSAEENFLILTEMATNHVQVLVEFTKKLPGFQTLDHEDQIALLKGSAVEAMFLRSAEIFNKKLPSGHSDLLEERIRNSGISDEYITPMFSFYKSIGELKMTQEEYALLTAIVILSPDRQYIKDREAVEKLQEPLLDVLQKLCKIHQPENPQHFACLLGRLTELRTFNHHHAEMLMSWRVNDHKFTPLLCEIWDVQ
Test: transient human FXR/Gal4-luciferase reporter assay
Type: cell-based
Conditions: Gal4-hFXR fusion construct, luciferase reporter in HEK293 cells; overnight incubation; response as percentage of 8 μM GW-4064 control
In short: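 HEK293 cells stably carrying a 5×Gal4-response-element firefly luciferase reporter were transiently transfected with a Gal4 DBD-human FXR LBD fusion, then treated overnight with compounds at 37 °C. Steady-Glo luminescence, minus DMSO background, was expressed as percent of the response to 8 μM GW-4064.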

Cn1nc(C2CC2)cc1C12CCC(CN(C(=O)C3CCC(F)(F)CC3)c3cccc(C#N)c3)(CC1)CC2 [Example 73, N-(3-cyanophenyl)-N-((4-(3-cyclopropyl-1-methyl-1H-pyrazol-5-yl)bicyclo[2.2.2]octan-1-yl)methyl)-4,4-difluorocyclohexane-1-carboxamide]
pEC50: 5.67

Cn1nc(C2CC2)cc1C12CCC(CN(c3cccc(C#N)c3)C(=O)[C@H]3C[C@@](C)(O)C3)(CC1)CC2 [Example 74, (1S,3S)-N-(3-cyanophenyl)-N-((4-(3-cyclopropyl-1-methyl-1H-pyrazol-5-yl)bicyclo[2.2.2]octan-1-yl)methyl)-3-hydroxy-3-methylcyclobutane-1-carboxamide]
pEC50: 5.87

Cn1nc(C2CC2)cc1C12CCC(CN(c3cccc(C#N)c3)C(=O)[C@H]3C[C@](O)(C(F)(F)F)C3)(CC1)CC2 [Example 75, (1S,3S)-N-(3-cyanophenyl)-N-((4-(3-cyclopropyl-1-methyl-1H-pyrazol-5-yl)bicyclo[2.2.2]octan-1-yl)methyl)-3-hydroxy-3-(trifluoromethyl)cyclobutane-1-carboxamide]
pEC50: 5.86

Cn1nc(C2CC2)cc1C12CCC(CN(c3cccc(S(C)(=O)=O)c3)C(=O)[C@H]3C[C@](O)(C(F)(F)F)C3)(CC1)CC2 [Example 76, (1S,3S)—N-((4-(3-cyclopropyl-1-methyl-1H-pyrazol-5-yl)bicyclo[2.2.2]octan-1-yl)methyl)-3-hydroxy-N-(3-(methylsulfonyl)phenyl)-3-(trifluoromethyl)cyclobutane-1-carboxamide]
pEC50: 5.40

Cn1nc(C2CC2)cc1C12CCC(CN(C(=O)C3CCC(F)(F)CC3)c3cccc(S(C)(=O)=O)c3)(CC1)CC2 [Example 77, N-((4-(3-cyclopropyl-1-methyl-1H-pyrazol-5-yl)bicyclo[2.2.2]octan-1-yl)methyl)-4,4-difluoro-N-(3-(methylsulfonyl)phenyl) cyclohexane-1-carboxamide]
pEC50: 5.40

Cn1nc(C2CC2)cc1C12CCC(CN(C(=O)C34CC(F)(C3)C4)c3cccc(S(C)(=O)=O)c3)(CC1)CC2 [Example 78, N-((4-(3-cyclopropyl-1-methyl-1H-pyrazol-5-yl)bicyclo[2.2.2]octan-1-yl)methyl)-3-fluoro-N-(3-(methylsulfonyl)phenyl)bicyclo[1.1.1]pentane-1-carboxamide]
pEC50: 5.40

COC(=O)COc1cccc(N(CC23CCC(c4ccc(N(C)C)c(Cl)c4)(CC2)CC3)C(=O)C2CCCCC2)c1 [Example 79, Methyl 2-(3-(N-((4-(3-chloro-4-(dimethylamino)phenyl)bicyclo[2.2.2]octan-1-yl)methyl)cyclohexanecarboxamido)phenoxy) acetate]
pEC50: 5.98

COC(=O)COc1cccc(N(CC23CCC(c4ccc(N(C)C)cc4)(CC2)CC3)C(=O)C2CCCCC2)c1 [Example 80, Methyl 2-(3-(N-((4-(4-(dimethylamino)phenyl)bicyclo[2.2.2]octan-1-yl)methyl)cyclohexanecarboxamido)phenoxy) acetate]
pEC50: 5.80

COC(=O)COc1cccc(N(CC23CCC(c4ccc5c(cnn5C)c4)(CC2)OC3)C(=O)C2CCOCC2)c1 [Example 81, Methyl 2-(3-(N-((1-(1-methyl-1H-indazol-5-yl)-2-oxabicyclo[2.2.2]octan-4-yl)methyl)tetrahydro-2H-pyran-4-carboxamido)phenoxy) acetate]
pEC50: 5.36

Cc1noc(C23CCC(CN(C(=O)C4CCCCC4)c4cccc(C(=O)Nc5nccs5)c4)(CC2)CC3)n1 [Example 82, 3-(N-((4-(3-methyl-1,2,4-oxadiazol-5-yl)bicyclo[2.2.2]octan-1-yl)methyl)cyclohexanecarboxamido)-N-(thiazol-2-yl)benzamide]
pEC50: 5.52

CCOc1ccc(Nc2cccc(N(CC34CCC(c5nc(C(C)(C)C)no5)(CC3)CC4)C(=O)C34CC(F)(C3)C4)c2)cc1 [Example 83, N-((4-(3-(tert-butyl)-1,2,4-oxadiazol-5-yl)bicyclo[2.2.2]octan-1-yl)methyl)-N-(3-((4-ethoxyphenyl)amino)phenyl)-3-fluorobicyclo[1.1.1]pentane-1-carboxamide]
pEC50: 5.95

CC(C)(C)c1nc(C23CCC(CN(C(=O)C45CC(F)(C4)C5)c4cccc(Nc5ccc(OC(F)F)cc5)c4)(CC2)CC3)no1 [Example 84, N-((4-(5-(tert-butyl)-1,2,4-oxadiazol-3-yl)bicyclo[2.2.2]octan-1-yl)methyl)-N-(3-((4-(difluoromethoxy)phenyl)amino)phenyl)-3-fluorobicyclo[1.1.1]pentane-1-carboxamide]
pEC50: 7.08

CCOc1ccc(Nc2cccc(N(CC34CCC(c5noc(C(C)(C)C)n5)(CC3)CC4)C(=O)C34CC(F)(C3)C4)c2)cc1 [Example 85, N-((4-(5-(tert-butyl)-1,2,4-oxidial-3-yl)bicyclo[2.2.2]octan-1-yl)methyl)-N-(3-((4-ethoxyphenyl)amino)phenyl)-3-fluorobicyclo[1.1.1]pentane-1-carboxamide]
pEC50: 6.22

CCc1ccc(Nc2cccc(N(CC34CCC(c5noc(C(C)(C)C)n5)(CC3)CC4)C(=O)C34CC(F)(C3)C4)c2)cc1 [Example 86, N-((4-(5-(tert-butyl)-1,2,4-oxadiazol-3-yl)bicyclo[2.2.2]octan-1-yl)methyl)-N-(3-((4-ethylphenyl)amino)phenyl)-3-fluorobicyclo[1.1.]pentane-1-carboxamide]
pEC50: 6.28

CC(C)(C)c1nc(C23CCC(CN(C(=O)C45CC(F)(C4)C5)c4cccc(Nc5ccc(C(F)(F)F)cc5)c4)(CC2)CC3)no1 [Example 87, N-((4-(5-(tert-butyl)-1,2,4-oxadiazol-3-yl)bicyclo[2.2.2]octan-1-yl)methyl)-3-fluoro-N-(3-((4-(trifluoromethyl)phenyl)amino)phenyl)bicyclo[1.1.1]pentane-1-carboxamide]
pEC50: 5.70

CC(C)(C)c1nc(C23CCC(CN(C(=O)C45CC(F)(C4)C5)c4cccc(Nc5ccc(F)cc5)c4)(CC2)CC3)no1 [Example 88, N-((4-(5-(tert-butyl)-1,2,4-oxadiazol-3-yl)bicyclo[2.2.2]octan-1-yi)methyl)-3-fluoro-N-(3-((4-fluorophenyl)amino)phenyl)bicyclo[1.1.1]pentane-1-carboxamide]
pEC50: 6.75

COC(=O)CCc1cccc(N(CC23CCC(c4ccc(N(C)C)cc4)(CC2)CC3)C(=O)C2CCCCC2)c1 [Example 89, Methyl 3-(3-(N-((4-(4-(dimethylamino)phenyl)bicyclo[2.2.2]octan-1-yl)methyl)cyclohexanecarboxamido)phenyl)propanoate]
pEC50: 5.95

CS(=O)(=O)c1cccc(N(CC23CCC(c4nc(C5CC5)no4)(CC2)CC3)C(=O)[C@H]2C[C@](O)(C(F)(F)F)C2)c1 [Example 90, (1S,3S)—N-((4-(3-cyclopropyl-1,2,4-oxadiazol-5-yl)bicyclo[2.2.2]octan-1-yl)methyl)-3-hydroxy-N-(3-(methylsulfonyl)phenyl)-3-(trifluoromethyl)cyclobutane-1-carboxamide]
pEC50: 5.40

N#CC1(c2ccc(Nc3cccc(N(CC45CCC(c6noc(C7(F)CC7)n6)(CC4)CC5)C(=O)[C@H]4C[C@](O)(C(F)(F)F)C4)c3)cc2)CC1 [Example 91, (1S,3S)—N-(3-((4-(1-cyanocyclopropyl)phenyl)amino)phenyl)-N-((4-(5-(1-fluorocyclopropyl)-1,2,4-oxadiazol-3-yl)bicyclo[2.2.2]octan-1-yl)methyl)-3-hydroxy-3-(trifluoromethyl)cyclobutane-1-carboxamide]
pEC50: 5.66
